In assay [1] the target is Recombinant human DDR1 (aa440-876 containing a GST tag) (Homo sapiens (Human), UniProt Q08345). Briefly: LanthaScreen Eu Kinase Binding Assay DDR1. The note with it: Kinase Tracer 178 5 nM, at least two independent replicates; for IC50: read-out: DDR1 pIC50 (converted). How it is done: (§1) DDR1 and DDR2 Biochemical Assay Method The capacity of compounds to bind to DDR1 and DDR2 was quantified using a LanthaScreen Eu Kinase Binding Assay. Recombinant human DDR1 (2.5 nM; aa440-876 containing a GST tag) and DDR2 (1.75 nM; aa427-855 containing a GST tag) were diluted in assay buffer (50 mM HEPES pH7.3, 10 mM MgCl2, 1 mM EGTA and 0.01% Tween) with various concentrations of compound in a 384-well plate and a volume of 5 uL. After a 30-minute incubation at room temperature, 2.5 uL of Eu-anti GST antibody (diluted to 1 nM in assay buffer) plus Kinase Tracer 178 (diluted in assay buffer to 5 nM for DDR1 and 10 nM for DDR2) were added to the plate. Following 60-minute incubation at room temperature, time-resolved fluorescence was measured on a BMG Labtech PHERAstar plate reader. DMSO (1%) and reference compound (1 μM) were used to generate the Max and Min assay signals, respectively. Data was analysed using a four-parameter logistic model to calculate IC50 values, with at least two independent replicates were performed for each compound.
For orientation: Time-resolved FRET reads energy transfer from a long-lived donor to a nearby acceptor.

The target in assay [2] is Recombinant human DDR2 (aa427-855 containing a GST tag) (Homo sapiens (Human), UniProt Q16832). The assay is described as follows: LanthaScreen Eu Kinase Binding Assay DDR2. The conditions noted are these: Kinase Tracer 178 10 nM, at least two independent replicates; for IC50: read-out: DDR2 pIC50 (converted). How it is done:
as §1

Each structure is given as a SMILES string.

Recombinant human DDR2 (aa427-855 containing a GST tag), sequence (Q16832 427-855): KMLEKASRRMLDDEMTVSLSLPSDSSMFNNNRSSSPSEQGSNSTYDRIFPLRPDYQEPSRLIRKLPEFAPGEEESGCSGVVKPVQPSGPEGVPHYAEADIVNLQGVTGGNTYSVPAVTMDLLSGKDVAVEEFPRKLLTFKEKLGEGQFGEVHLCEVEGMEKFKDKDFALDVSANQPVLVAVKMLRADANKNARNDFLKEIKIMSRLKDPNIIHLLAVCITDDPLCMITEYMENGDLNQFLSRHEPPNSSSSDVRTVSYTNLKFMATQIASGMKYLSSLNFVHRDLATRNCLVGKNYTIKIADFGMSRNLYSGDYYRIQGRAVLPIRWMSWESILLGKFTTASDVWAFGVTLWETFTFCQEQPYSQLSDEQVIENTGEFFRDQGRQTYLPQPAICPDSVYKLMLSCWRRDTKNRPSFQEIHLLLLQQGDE
Recombinant human DDR1 (aa440-876 containing a GST tag), sequence (Q08345 other isoform, or with tags, fused parts or gaps): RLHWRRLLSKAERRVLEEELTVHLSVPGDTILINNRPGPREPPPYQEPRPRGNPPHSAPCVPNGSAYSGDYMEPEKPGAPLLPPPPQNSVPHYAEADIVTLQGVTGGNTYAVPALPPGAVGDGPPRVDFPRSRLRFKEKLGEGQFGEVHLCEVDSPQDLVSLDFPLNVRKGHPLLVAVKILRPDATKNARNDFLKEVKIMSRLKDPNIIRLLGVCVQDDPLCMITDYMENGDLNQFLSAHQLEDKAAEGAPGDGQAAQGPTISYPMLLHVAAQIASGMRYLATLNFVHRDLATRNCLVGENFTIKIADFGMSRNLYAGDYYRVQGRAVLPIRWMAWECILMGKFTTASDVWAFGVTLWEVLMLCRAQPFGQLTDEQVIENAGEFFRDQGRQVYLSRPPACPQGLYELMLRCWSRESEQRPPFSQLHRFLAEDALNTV

For the compound `Cn1ncc2c(-c3ccc(-n4c(=O)n(CC(=O)N5CCC[C@H]5C(F)F)c5ccccc54)cc3)cncc21` [Example 25, 1-[2-[(2S)-2-(difluoromethyl)pyrrolidin-1-yl]-2-oxo-ethyl]-3-[4-(1-methylpyrazolo[3,4-c]pyridin-4-yl)phenyl]benzimidazol-2-one], the “DDR1 pIC50” value in assay [1] is “A (pIC50>8)”. Besides, in assay [2], the IC50 is 10 to 100 nM.

In the case of `COc1cccc2c1n(-c1ccc(-c3cncc4c3cnn4C)cc1C)c(=O)n2CC(=O)NCC(F)(F)F` [Example 81, 2-[4-methoxy-3-[2-methyl-4-(1-methylpyrazolo[3,4-c]pyridin-4-yl)phenyl]-2-oxo-benzimidazol-1-yl]-N-(2,2,2-trifluoroethyl)acetamide], the “DDR1 pIC50” value in assay [1] is “D (pIC50≤6)”. The “DDR2 pIC50” value in assay [2] is reported as “D (pIC50≤6)”.

As to `Cc1cccc2c1n(-c1ccc(-c3cncc4c3cnn4C)nc1)c(=O)n2CC(=O)N[C@H](C)C(F)(F)F` [Example 51, 2-[4-methyl-3-[6-(1-methylpyrazolo[3,4-c]pyridin-4-yl)-3-pyridyl]-2-oxo-benzimidazol-1-yl]-N-[(1R)-2,2,2-trifluoro-1-methyl-ethyl]acetamide], the IC50 in assay [1] is 10 to 100 nM; in assay [2], 100 to 1000 nM.

`Cc1cc(-c2cncc3c2cnn3C)cnc1-n1c(=O)n(CC(=O)N[C@H](C)C(F)(F)F)c2cccc(C)c21` [Example 111]: the IC50 in assay [1] is 100 to 1000 nM. Further, the “DDR2 pIC50” value in assay [2] is “D (pIC50≤6)”.

On to `Cc1cccc2c1n(-c1ncc(-c3cncc4[nH]ncc34)cn1)c(=O)n2CC(=O)N[C@H](C)C(F)(F)F` [Example 98, 2-[4-methyl-2-oxo-3-[5-(1H-pyrazolo[3,4-c]pyridin-4-yl)pyrimidin-2-yl]benzimidazol-1-yl]-N-[(1R)-2,2,2-trifluoro-1-methyl-ethyl]acetamide], for which the IC50 in assay [1] is 100 to 1000 nM. Moreover, the “DDR2 pIC50” value in assay [2] is listed as “D (pIC50≤6)”.

In the case of `Cc1cccc2c1n(-c1ccc(-c3cncc4[nH]ncc34)cn1)c(=O)n2CC(=O)NCC(F)(F)F` [Example 72, 2-[4-methyl-2-oxo-3-[5-(1H-pyrazolo[3,4-c]pyridin-4-yl)-2-pyridyl]benzimidazol-1-yl]-N-(2,2,2-trifluoroethyl)acetamide], in assay [1], the “DDR1 pIC50” value is listed as “A (pIC50>8)”. Besides, the IC50 in assay [2] was 100 to 1000 nM.

`Cc1cc(-c2cncc3c2cnn3C)ccc1-n1c(=O)n(CC(=O)N[C@@H](C)C(F)(F)F)c2cccc(C)c21` [Example 82, 2-[4-methyl-3-[2-methyl-4-(1-methylpyrazolo[3,4-c]pyridin-4-yl)phenyl]-2-oxo-benzimidazol-1-yl]-N-[(1S)-2,2,2-trifluoro-1-methyl-ethyl]acetamide]: the “DDR1 pIC50” value in assay [1] is on record as “A (pIC50>8)”. Moreover, the IC50 in assay [2] is 10 to 100 nM.

Turning to `Cn1ncc2c(-c3ccc(-n4c(=O)n(CC(=O)N5CCC[C@H]5C(F)(F)F)c5ccccc54)cn3)cncc21` [Example 65, 1-[6-(1-methylpyrazolo[3,4-c]pyridin-4-yl)-3-pyridyl]-3-[2-oxo-2-[(2S)-2-(trifluoromethyl)pyrrolidin-1-yl]ethyl]benzimidazol-2-one], the “DDR1 pIC50” value in assay [1] is on record as “A (pIC50>8)”. For the same compound, in assay [2], the IC50 was 100 to 1000 nM.

On to `Cc1cc(-n2c(=O)n(CC(=O)NCC(F)(F)F)c3cccc(C)c32)cnc1-c1cncc2[nH]ncc12` [Example 99, 2-[4-methyl-3-[5-methyl-6-(1H-pyrazolo[3,4-c]pyridin-4-yl)-3-pyridyl]-2-oxo-benzimidazol-1-yl]-N-(2,2,2-trifluoroethyl)acetamide], for which, in assay [1], the IC50 is 100 to 1000 nM. The “DDR2 pIC50” value in assay [2] is on record as “D (pIC50≤6)”.

As for `Cc1cccc2c1n(-c1ccc(-c3cncc4c3cnn4C)cn1)c(=O)n2CC(=O)N1CCC[C@H]1C(F)(F)F` [Example 59, 4-methyl-3-[5-(1-methylpyrazolo[3,4-c]pyridin-4-yl)-2-pyridyl]-1-[2-oxo-2-[(2S)-2-(trifluoromethyl)pyrrolidin-1-yl]ethyl]benzimidazol-2-one], in assay [1], the “DDR1 pIC50” value is “A (pIC50>8)”. The IC50 in assay [2] is 10 to 100 nM.

Take `Cc1cccc2c1n(-c1ccc(-c3cncc4c3cnn4C)cn1)c(=O)n2CC(=O)N1CCO[C@@H](C(F)(F)F)C1` [Example 60, 4-methyl-3-[5-(1-methylpyrazolo[3,4-c]pyridin-4-yl)-2-pyridyl]-1-[2-oxo-2-[(2R)-2-(trifluoromethyl)morpholin-4-yl]ethyl]benzimidazol-2-one]: the IC50 is 10 to 100 nM in assay [1] and 100 to 1000 nM in assay [2].

Consider `Cc1cccc2c1n(-c1ccc(-c3cncc4c3cnn4C)nc1)c(=O)n2CC(=O)N1CCOC(C(F)(F)F)C1` (stereo in doubt) [Example 55, 4-methyl-3-[6-(1-methylpyrazolo[3,4-c]pyridin-4-yl)-3-pyridyl]-1-[2-oxo-2-[(2S)-2-trifluoromethyl)morpholin-4-yl]ethyl]benzimidazol-2-one], for which the figures for the IC50 in assay [1] and in assay [2] were less than 10 nM and 100 to 1000 nM, respectively.

Take `Cc1cccc2c1n(-c1ccc(-c3cncc4c3cnn4C)cn1)c(=O)n2CC(=O)N[C@@H](C)C(F)(F)F` [Example 57, 2-[4-methyl-3-[5-(1-methylpyrazolo[3,4-c]pyridin-4-yl)-2-pyridyl]-2-oxo-benzimidazol-1-yl]-N-[(1S)-2,2,2-trifluoro-1-methyl-ethyl]acetamide]: the “DDR1 pIC50” value in assay [1] is reported as “A (pIC50>8)”. Also, the “DDR2 pIC50” value in assay [2] is “C (7≥pIC50>6)”.

In the case of `Cc1cccc2c1n(-c1ncc(-c3cncc4[nH]ncc34)cn1)c(=O)n2CC(=O)N[C@@H](C)C(F)(F)F` [Example 73, 2-[4-methyl-2-oxo-3-[5-(1H-pyrazolo[3,4-c]pyridin-4-yl)pyrimidin-2-yl]benzimidazol-1-yl]-N-[(1S)-2,2,2-trifluoro-1-methyl-ethyl]acetamide], in assay [1], the “DDR1 pIC50” value is recorded as “A (pIC50>8)”. In assay [2], the IC50 was 100 to 1000 nM.

With `Cc1cccc2c1n(-c1ccc(-c3cncc4c3cnn4C)cc1)c(=O)n2CC(=O)N[C@@H](C)C(F)(F)F` [Example 7, 2-[4-methyl-3-[4-(1-methylpyrazolo[3,4-c]pyridin-4-yl)phenyl]-2-oxobenzimidazol-1-yl]-N-[(1S)-2,2,2-trifluoro-1-methylethyl]acetamide], in assay [1], the “DDR1 pIC50” value is listed as “A (pIC50>8)”. Moreover, the “DDR2 pIC50” value in assay [2] was “A (pIC50>8)”.

For the compound `Cn1ncc2c(-c3ccc(-n4c(=O)n(CC(=O)NCC(F)(F)F)c5ccccc54)cn3)cncc21` [Example 91, 2-[3-[6-(1-methylpyrazolo[3,4-c]pyridin-4-yl)-3-pyridyl]-2-oxo-benzimidazol-1-yl]-N-(2,2,2-trifluoroethyl)acetamide], in assay [1], the “DDR1 pIC50” value is on record as “C (7≥pIC50>6)”. Also, the “DDR2 pIC50” value in assay [2] was “D (pIC50≤6)”.

For the compound `Cc1ncc2c(cnn2C)c1-c1ccc(-n2c(=O)n(CC(=O)NCC(F)(F)F)c3cccc(C)c32)cn1` [Example 109], the “DDR1 pIC50” value in assay [1] was “D (pIC50≤6)”. Also, the “DDR2 pIC50” value in assay [2] is “D (pIC50≤6)”.

As for `Cc1cc(-n2c(=O)n(CC(=O)NCC(F)(F)F)c3ccccc32)ccc1-c1cncc2c1cnn2C` [Example 5, 2-[3-[3-methyl-4-(1-methylpyrazolo[3,4-c]pyridin-4-yl)phenyl]-2-oxobenzimidazol-1-yl]-N-(2,2,2-trifluoroethyl)acetamide], the “DDR1 pIC50” value in assay [1] is on record as “D (pIC50≤6)”. Also, in assay [2], the “DDR2 pIC50” value is “D (pIC50≤6)”.

The values above are taken from US20260055102A1 (Redx Pharma Limited, priority 2022, published 2026).
